Laboratory results taken from paper PMC10195144, “Purification and characterization of a cold-active myrosinase from marine Pseudomonas oleovorans SuMy07” (Acta Biochimica et Biophysica Sinica, 2023).

Test system: T1, myrosinase of SuMy07
T1 construct: gene beta-thioglucoside glucohydrolase; native enzyme purified from the marine isolate (ultrafiltration, ammonium sulfate, Superdex 200); two subunits of 65 kDa
Experiment: double-reciprocal plot of sinigrin hydrolysis
Assay type: biochemical, Pseudomonas oleovorans
Details: pH 7.0, 25 °C

Work on `C=CC/C(=N/OS(=O)(=O)O)S[C@@H]1O[C@H](CO)[C@@H](O)[C@H](O)[C@H]1O` [sinigrin hydrate] yielded a Km of 1400 µM.
